Assay results from PMC10745882, “Investigation of Drug-Interaction Potential for Arthritis Dietary Supplements: Chondroitin Sulfate, Glucosamine, and Methylsulfonylmethane” (Molecules, 2023).
Where two headings read alike, the source gives them in different places.

How the values were obtained:
CYPs [1] = conditions: drugs used for OA; ref as in Refs of Table 4, 17-36; cited from earlier work
CYP3A4(M) = biological target: T1, CYP3A4(M) (Homo sapiens, UniProt P08684); assay: CYP inhibition assay in human liver microsomes (LC-MS/MS cocktail), midazolam to 1-OH-midazolam; assay type: in vitro ADME
T1 construct: Pooled human liver microsomes were purchased from BD Gentest; tissue BD Gentest; host or cells: pooled human liver microsomes
T1 sequence (P08684 whole entry): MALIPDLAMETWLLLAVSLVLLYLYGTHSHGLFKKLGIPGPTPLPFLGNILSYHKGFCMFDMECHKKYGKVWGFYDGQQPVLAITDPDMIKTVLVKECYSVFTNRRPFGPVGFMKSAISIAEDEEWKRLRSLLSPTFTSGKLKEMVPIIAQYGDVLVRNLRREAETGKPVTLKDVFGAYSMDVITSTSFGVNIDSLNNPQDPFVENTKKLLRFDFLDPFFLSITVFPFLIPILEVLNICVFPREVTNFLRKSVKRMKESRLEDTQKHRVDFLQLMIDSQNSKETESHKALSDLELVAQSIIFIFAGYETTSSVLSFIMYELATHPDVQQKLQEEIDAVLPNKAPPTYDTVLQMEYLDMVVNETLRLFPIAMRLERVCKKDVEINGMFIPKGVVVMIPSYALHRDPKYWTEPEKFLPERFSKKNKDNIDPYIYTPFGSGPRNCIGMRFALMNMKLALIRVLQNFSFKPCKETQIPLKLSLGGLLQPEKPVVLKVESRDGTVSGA
Method: For the experimental method, the reference method was used. […] The reaction mixture, excluding NGS, underwent pre-incubation at 37 °C for 5 min, followed by further incubation with NGS for 30 min in a water bath. […] Post incubation, the reaction was halted by adding 50 µL ice-cold 1% formic acid acetonitrile. After centrifugation at 13,200 rpm for 5 min, the supernatant was collected from the sample and subjected to analysis via an LC-MS/MS system. All experiments were performed in triplicate.
For the experimental method, the reference method was used. […] The HPLC mobile phases comprised (A) 0.1% formic acid and (B) 0.1% formic acid in 90% acetonitrile. […] The total run time was 11.0 min, and the injection volume was 5 µL. Mass detection was conducted in the positive ion mode using multiple reaction monitoring (MRM). Specific MRM transitions for each analyte are detailed in Table S4.

CYP3A4(T) = biological target: T2, CYP3A4(T) (Homo sapiens, UniProt P08684); assay: CYP inhibition assay in human liver microsomes (LC-MS/MS cocktail), testosterone to 6-β-OH-Testosterone; assay type: in vitro ADME
T2 construct: Pooled human liver microsomes were purchased from BD Gentest; tissue BD Gentest; host or cells: pooled human liver microsomes
T2 sequence (P08684 whole entry): as above
Method: (§1) For the experimental method, the reference method was used. Briefly, incubation mixtures were composed of 0.5 mg/mL human liver microsomes; varying concentrations of CS in DW (0.1, 0.3, 1, 3, 10, 30, 100, and 200 µM) or MSM in DW (0.1, 0.3, 1, 3, 10, 30, 100, 300, and 1000 µM) or GCS in DMSO (0.1, 0.3, 1, 3, 10, 30, 100, 300, and 1000 µM); a substrate mixture in DMSO (40 µM phenacetin for CYP1A2; 2.5 µM coumarin for CYP2A6; 80 µM bupropion for CYP2B6; 10 µM diclofenac for CYP2C9; 80 µM [±]-mephenytoin for CYP2C19; 5 µM dextromethorphan for CYP2D6; 2.5 µM midazolam and 30 µM testosterone for CYP3A4); and an NADPH generating system (NGS; 0.1 M glucose-6-phosphate, 10 mg/mL β-NADP^+, and 1 U/mL glucose-6-phosphate dehydrogenase) in a total volume of 200 µL potassium phosphate buffer (0.1 M, pH 7.4). The reaction mixture, excluding NGS, underwent pre-incubation at 37 °C for 5 min, followed by further incubation with NGS for 30 min in a water bath. Well-established selective CYP inhibitors were employed as positive controls (40 µM ketoconazole for CYP3A4, 50 µM furafyllin for CYP1A2, 10 µM quinidine for CYP2D6, 125 µM ticlopidine for CYP2C19 and CYP2B6, 10 µM 8-methoxsalen for CYP2A6, and 10 µM sulfaphenazole for CYP2C9). Post incubation, the reaction was halted by adding 50 µL ice-cold 1% formic acid acetonitrile. After centrifugation at 13,200 rpm for 5 min, the supernatant was collected from the sample and subjected to analysis via an LC-MS/MS system. All experiments were performed in triplicate.
For the experimental method, the reference method was used. The LC-MS/MS system utilized in this study consisted of an Agilent 1260 binary pump HPLC system coupled with the Agilent 6460 Triple Quadrupole mass spectrometer (Agilent Technologies, Santa Clara, CA, USA), featuring an electrospray ionization source. Chromatographic separation was achieved using a Fortis C8 column (2.1 × 100 mm, 5.0 µm; Fortis Technologies Ltd., Neston, UK). The HPLC mobile phases comprised (A) 0.1% formic acid and (B) 0.1% formic acid in 90% acetonitrile. A gradient elution method was employed with an initial solvent B concentration of 15% and a flow rate of 0.25 mL/min. […] The total run time was 11.0 min, and the injection volume was 5 µL. Mass detection was conducted in the positive ion mode using multiple reaction monitoring (MRM). Specific MRM transitions for each analyte are detailed in Table S4.

[2] = system: seven CYP isozymes (CYP1A2, CYP2A6, CYP2B6, CYP2C9, CYP2C19, CYP2D6, CYP3A4); assay: CYP inhibition assay in human liver microsomes, statements on all tested isozymes; assay type: in vitro ADME
Method: as §1
For the experimental method, the reference method was used. The LC-MS/MS system utilized in this study consisted of an Agilent 1260 binary pump HPLC system coupled with the Agilent 6460 Triple Quadrupole mass spectrometer (Agilent Technologies, Santa Clara, CA, USA), featuring an electrospray ionization source. Chromatographic separation was achieved using a Fortis C8 column (2.1 × 100 mm, 5.0 µm; Fortis Technologies Ltd., Neston, UK). The HPLC mobile phases comprised (A) 0.1% formic acid and (B) 0.1% formic acid in 90% acetonitrile. […]

[3] = design: method as in doi:10.4172/2155-9600.1000748, PMID 16168682, PMID 19912983; conditions: cited from earlier work
CYPs [4] = system: CYPs; design: method as in PMID 33096940; conditions: in vivo mice, after the administration of MSM; cited from earlier work
[5] = design: method as in PMID 16942821, PMID 37489348, PMID 31331587; conditions: typical doses as monotherapy; cited from earlier work
CYP2D6 = biological target: T3, CYP2D6 (Homo sapiens, UniProt P10635); design: method as in PMID 34821124, PMID 29488228; conditions: previous studies; cited from earlier work
T3 construct: Pooled human liver microsomes were purchased from BD Gentest; tissue BD Gentest; host or cells: pooled human liver microsomes
T3 sequence (P10635 whole entry): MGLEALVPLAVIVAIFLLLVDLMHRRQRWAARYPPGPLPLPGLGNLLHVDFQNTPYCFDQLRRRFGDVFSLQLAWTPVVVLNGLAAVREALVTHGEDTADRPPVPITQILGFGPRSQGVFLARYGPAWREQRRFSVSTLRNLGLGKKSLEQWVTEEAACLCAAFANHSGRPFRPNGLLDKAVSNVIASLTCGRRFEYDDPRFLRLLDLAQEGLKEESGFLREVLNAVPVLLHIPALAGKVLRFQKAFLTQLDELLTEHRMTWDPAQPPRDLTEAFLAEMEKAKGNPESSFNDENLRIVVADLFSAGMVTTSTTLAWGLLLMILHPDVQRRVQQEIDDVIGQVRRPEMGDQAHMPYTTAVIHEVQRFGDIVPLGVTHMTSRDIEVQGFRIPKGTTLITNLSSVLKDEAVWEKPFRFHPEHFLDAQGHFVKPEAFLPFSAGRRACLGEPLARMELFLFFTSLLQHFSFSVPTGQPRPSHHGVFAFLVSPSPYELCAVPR

CYP2C9 = system: CYP2C9; design: method as in PMID 34821124, PMID 29488228; conditions: previous studies; cited from earlier work
[6] = interaction case, co-administration of CS and GCS with warfarin; cited from earlier work

Molecule: CC(=O)Nc1ccc(O)cc1 [Acetaminophen]
- Metabolism-Associated CYPs (CYPs [1]): CYP3A4 (major), CYP2El, CYP1A2, CYP2D6

Molecule: Cc1ccc(-c2cc(C(F)(F)F)nn2-c2ccc(S(N)(=O)=O)cc2)cc1 [Celecoxib]
- Metabolism-Associated CYPs (CYPs [1]): CYP2C9 (major), CYP3A4

Molecule: O=C(O)Cc1ccccc1Nc1c(Cl)cccc1Cl [Diclofenac]
- Metabolism-Associated CYPs (CYPs [1]): CYP2C8, CYP2C9 (major), CYP2C18, CYP2C19, CYP2B6, CYP3A4

Molecule: CC(C)Cc1ccc(C(C)C(=O)O)cc1 (centres unmarked) [Ibuprofen]
- Metabolism-Associated CYPs (CYPs [1]): CYP2C8 (major) CYP2C9 (major), CYP2C19, CYP3A4

Molecule: CS(C)(=O)=O [MSM, methylsulfonylmethane]
- Remaining Activities (% of Control, n = 3) (CYP3A4(M); test substance 0.3 μM): 93.2 ± 13.2 % of Control
- Remaining Activities (% of Control, n = 3) (CYP3A4(M); test substance 1 μM): 97.8 ± 4.3 % of Control
- Remaining Activities (% of Control, n = 3) (CYP3A4(M); test substance 3 μM): 96.2 ± 4.3 % of Control
- Remaining Activities (% of Control, n = 3) (CYP3A4(M); test substance 10 μM): 96.8 ± 4.2 % of Control
- Remaining Activities (% of Control, n = 3) (CYP3A4(M); test substance 30 μM): 96.9 ± 7.2 % of Control
- Remaining Activities (% of Control, n = 3) (CYP3A4(M); test substance 100 μM): 96.7 ± 6.2 % of Control
- Remaining Activities (% of Control, n = 3) (CYP3A4(M); test substance 300 μM): 97.9 ± 4.4 % of Control
- Remaining Activities (% of Control, n = 3) (CYP3A4(M); test substance 1000 μM): 99.7 ± 4.1 % of Control
- Remaining Activities (% of Control, n = 3) (CYP3A4(T); test substance 0.3 μM): 95.3 ± 2.9 % of Control
- Remaining Activities (% of Control, n = 3) (CYP3A4(T); test substance 1 μM): 98.5 ± 4.2 % of Control
- Remaining Activities (% of Control, n = 3) (CYP3A4(T); test substance 3 μM): 95.1 ± 3.5 % of Control
- Remaining Activities (% of Control, n = 3) (CYP3A4(T); test substance 10 μM): 98.0 ± 2.4 % of Control
- Remaining Activities (% of Control, n = 3) (CYP3A4(T); test substance 30 μM): 95.3 ± 1.7 % of Control
- Remaining Activities (% of Control, n = 3) (CYP3A4(T); test substance 100 μM): 90.8 ± 3.4 % of Control
- Remaining Activities (% of Control, n = 3) (CYP3A4(T); test substance 300 μM): 95.9 ± 4.2 % of Control
- Remaining Activities (% of Control, n = 3) (CYP3A4(T); test substance 1000 μM): 95.2 ± 0.5 % of Control
- inhibitory effects on CYP1A2, CYP2A6, CYP2B6, CYP2C9, CYP2C19, CYP2D6, and CYP3A4 [2]: no inhibitory effects
- maximum plasma concentrations ([3]; common daily dose 2000 mg/day): ~1100 µM
- inhibition or induction effects on CYPs (intrahepatic gene expressions) (CYPs [4]): no significant inhibition or induction effects
- adverse effects in clinical trials [5]: do not exhibit significant adverse effects

Molecule: Cc1cnc(NC(=O)C2=C(O)c3ccccc3S(=O)(=O)N2C)s1 [Meloxicam]
- Metabolism-Associated CYPs (CYPs [1]): CYP2C9 (major), CYP3A4

Molecule: CCOC(=O)C1(c2ccccc2)CCN(C)CC1 [Pethidine]
- Metabolism-Associated CYPs (CYPs [1]): CYP2B6 (major), CYP3A4 (major), CYP2C19

Molecule: COc1cccc(C2(O)CCCCC2CN(C)C)c1 (centres unmarked) [Tramadol]
- Metabolism-Associated CYPs (CYPs [1]): CYP2D6 (major), CYP3A4, CYP2B6

Molecule: Chondroitin sulfate [CS]
- Remaining Activities (% of Control, n = 3) (CYP3A4(M); test substance 0.1 μM): 97.6 ± 3.8 % of Control
- Remaining Activities (% of Control, n = 3) (CYP3A4(M); test substance 0.3 μM): 99.1 ± 3.1 % of Control
- Remaining Activities (% of Control, n = 3) (CYP3A4(M); test substance 1 μM): 91.2 ± 10.6 % of Control
- Remaining Activities (% of Control, n = 3) (CYP3A4(M); test substance 3 μM): 87.9 ± 27.9 % of Control
- Remaining Activities (% of Control, n = 3) (CYP3A4(M); test substance 10 μM): 101.4 ± 4.9 % of Control
- Remaining Activities (% of Control, n = 3) (CYP3A4(M); test substance 30 μM): 106.6 ± 5 % of Control
- Remaining Activities (% of Control, n = 3) (CYP3A4(M); test substance 100 μM): 113.6 ± 8.4 % of Control
- Remaining Activities (% of Control, n = 3) (CYP3A4(M); test substance 200 μM): 114.6 ± 2.8 % of Control
- inhibitory effects on CYP1A2, CYP2A6, CYP2B6, CYP2C9, CYP2C19, CYP2D6, and CYP3A4 [2]: no inhibitory effects
- maximum plasma concentrations ([3]; common daily dose 1200 mg/day): approximately 70 µM
- inhibitory effects on CYP2D6 (CYP2D6): no inhibitory effects
- inhibitory effects on CYP2C9 (CYP2C9): no inhibitory effects
- INR on co-administration with warfarin [6]: elevated INR
- adverse effects in clinical trials [5]: do not exhibit significant adverse effects
